Measurements taken from publication PMC5218480 (PLoS ONE, 2017).

Tested on: MV-4-11 cells
Assay: Gene expression microarray analysis (Affymetrix PrimeView) and GSEA
Format: cell-based, human
Design: RFU PODN (11730768_x_at) / Fold change /veh PODN (11730768_x_at) / RFU LINC00158 (11744669_a_at) / Fold change /veh LINC00158 (11744669_a_at) / RFU DUSP10 (11751237_a_at) / Fold change /veh DUSP10 (11751237_a_at) / RFU ID3 (11757404_x_at) / Fold change /veh ID3 (11757404_x_at) / RFU PLEKHG5 (11737974_s_at) / Fold change /veh PLEKHG5 (11737974_s_at) / RFU LRRC4B (11730491_at) / Fold change /veh LRRC4B (11730491_at) / RFU GIMAP4 (11747438_a_at) / Fold change /veh GIMAP4 (11747438_a_at) / RFU KRT8 (11758183_x_at) / Fold change /veh KRT8 (11758183_x_at) / RFU CNN1 (11734310_a_at) / Fold change /veh CNN1 (11734310_a_at) / RFU VPS37D (11726825_at) / Fold change /veh VPS37D (11726825_at) / RFU C10orf10 (11716522_x_at) / Fold change /veh C10orf10 (11716522_x_at) / RFU KIR2DL2 /// KIR2DL4 /// KIR2DL5A /// KIR2DL5B /// KIR2DS1 /// KIR2DS2 /// KIR2DS3 /// KIR2DS4 /// KIR3DL3 /// KIR3DL3 /// KIR3DS1 (11738374_at) / Fold change /veh KIR2DL2 /// KIR2DL4 /// KIR2DL5A /// KIR2DL5B /// KIR2DS1 /// KIR2DS2 /// KIR2DS3 /// KIR2DS4 /// KIR3DL3 /// KIR3DL3 /// KIR3DS1 (11738374_at) / RFU C1QL1 (11718748_at) / Fold change /veh C1QL1 (11718748_at) / RFU TMPRSS4 (11747572_a_at) / Fold change /veh TMPRSS4 (11747572_a_at) / RFU HAMP (11756126_x_at) / Fold change /veh HAMP (11756126_x_at) / RFU RNFT2 (11725882_a_at) / Fold change /veh RNFT2 (11725882_a_at) / RFU NR4A2 (11747474_a_at) / Fold change /veh NR4A2 (11747474_a_at) / RFU ABCC12 (11746883_a_at) / Fold change /veh ABCC12 (11746883_a_at) / RFU TMEM136 (11760407_x_at) / Fold change /veh TMEM136 (11760407_x_at) / RFU CLDN22 /// WWC2 (11732394_at) / Fold change /veh CLDN22 /// WWC2 (11732394_at) / RFU HLA-DPB1 (11760878_x_at) / Fold change /veh HLA-DPB1 (11760878_x_at) / RFU SPINT1 (11716480_a_at) / Fold change /veh SPINT1 (11716480_a_at) / RFU GAP43 (11754022_s_at) / Fold change /veh GAP43 (11754022_s_at) / RFU A4GNT (11735810_at) / Fold change /veh A4GNT (11735810_at) / RFU PRB3 (11715151_x_at) / Fold change /veh PRB3 (11715151_x_at) / RFU TUBB4B (11761932_at) / Fold change /veh TUBB4B (11761932_at) / RFU CAPN14 (11732068_a_at) / Fold change /veh CAPN14 (11732068_a_at) / RFU TMCC2 (11721928_a_at) / Fold change /veh TMCC2 (11721928_a_at) / RFU IRGQ (11745062_a_at) / Fold change /veh IRGQ (11745062_a_at) / RFU FAM174B (11720279_a_at) / Fold change /veh FAM174B (11720279_a_at) / RFU TMPRSS4 (11748680_a_at) / Fold change /veh TMPRSS4 (11748680_a_at) / RFU FAM212B (11763350_a_at) / Fold change /veh FAM212B (11763350_a_at) / RFU PLEKHG5 (11743358_a_at) / Fold change /veh PLEKHG5 (11743358_a_at) / RFU ZSCAN30 (11745921_a_at) / Fold change /veh ZSCAN30 (11745921_a_at) / RFU CMKLR1 (11741424_a_at) / Fold change /veh CMKLR1 (11741424_a_at) / RFU LOC101060620 /// MAPK8IP1 (11723275_at) / Fold change /veh LOC101060620 /// MAPK8IP1 (11723275_at) / RFU SPTSSB (11747773_x_at) / Fold change /veh SPTSSB (11747773_x_at) / RFU PRSS12 (11739890_at) / Fold change /veh PRSS12 (11739890_at) / RFU BIN1 (11741810_x_at) / Fold change /veh BIN1 (11741810_x_at) / RFU WNT11 (11732464_a_at) / Fold change /veh WNT11 (11732464_a_at) / RFU C10orf10 (11716521_a_at) / Fold change /veh C10orf10 (11716521_a_at) / RFU C5orf56 (11738089_at) / Fold change /veh C5orf56 (11738089_at) / RFU CYB561 (11721691_x_at) / Fold change /veh CYB561 (11721691_x_at) / RFU ANKRD19P (11752326_a_at) / Fold change /veh ANKRD19P (11752326_a_at) / RFU OR2T12 /// OR2T33 /// OR2T8 (11738714_s_at) / Fold change /veh OR2T12 /// OR2T33 /// OR2T8 (11738714_s_at) / RFU VCAN (11748164_a_at) / Fold change /veh VCAN (11748164_a_at) / RFU JSRP1 (11732532_at) / Fold change /veh JSRP1 (11732532_at) / RFU KRTAP10-11 (11738290_x_at) / Fold change /veh KRTAP10-11 (11738290_x_at) / RFU MYO3A (11730013_a_at) / Fold change /veh MYO3A (11730013_a_at) / RFU EBF3 (11725865_a_at) / Fold change /veh EBF3 (11725865_a_at) / RFU CAMK2N1 (11719241_x_at) / Fold change /veh CAMK2N1 (11719241_x_at) / RFU C5orf56 (11738088_a_at) / Fold change /veh C5orf56 (11738088_a_at) / RFU OLFML3 (11715873_a_at) / Fold change /veh OLFML3 (11715873_a_at) / RFU LOC100653217 /// NTM (11731650_a_at) / Fold change /veh LOC100653217 /// NTM (11731650_a_at) / RFU MAPK11 (11762145_a_at) / Fold change /veh MAPK11 (11762145_a_at) / RFU FIZ1 (11724087_x_at) / Fold change /veh FIZ1 (11724087_x_at) / RFU OASL (11726364_x_at) / Fold change /veh OASL (11726364_x_at) / RFU SOX15 (11748057_x_at) / Fold change /veh SOX15 (11748057_x_at) / RFU CD79A (11719716_a_at) / Fold change /veh CD79A (11719716_a_at) / RFU HIST1H1D (11736915_at) / Fold change /veh HIST1H1D (11736915_at) / RFU CASKIN2 (11723855_a_at) / Fold change /veh CASKIN2 (11723855_a_at) / RFU LOC730098 (11760151_x_at) / Fold change /veh LOC730098 (11760151_x_at) / RFU OR4N2 (11742367_at) / Fold change /veh OR4N2 (11742367_at) / RFU PRRT2 (11749266_a_at) / Fold change /veh PRRT2 (11749266_a_at) / RFU SNX32 (11753110_a_at) / Fold change /veh SNX32 (11753110_a_at) / RFU CDHR5 (11726645_a_at) / Fold change /veh CDHR5 (11726645_a_at) / RFU RCAN1 (11760418_a_at) / Fold change /veh RCAN1 (11760418_a_at) / RFU FAM167A (11723789_a_at) / Fold change /veh FAM167A (11723789_a_at) / RFU FAM26E (11764081_at) / Fold change /veh FAM26E (11764081_at) / RFU ISYNA1 (11749810_s_at) / Fold change /veh ISYNA1 (11749810_s_at) / RFU ACY1 (11761880_at) / Fold change /veh ACY1 (11761880_at) / RFU 11764098_at / Fold change /veh 11764098_at / RFU SAMD14 (11745864_x_at) / Fold change /veh SAMD14 (11745864_x_at) / RFU NPB (11741838_a_at) / Fold change /veh NPB (11741838_a_at) / RFU TMPRSS6 (11731388_a_at) / Fold change /veh TMPRSS6 (11731388_a_at) / RFU KRTAP10-2 (11738614_at) / Fold change /veh KRTAP10-2 (11738614_at) / RFU ARHGAP8 /// PRR5-ARHGAP8 (11727945_x_at) / Fold change /veh ARHGAP8 /// PRR5-ARHGAP8 (11727945_x_at) / RFU KRTAP5-7 /// NADSYN1 (11734609_at) / Fold change /veh KRTAP5-7 /// NADSYN1 (11734609_at) / RFU RASL12 (11751679_a_at) / Fold change /veh RASL12 (11751679_a_at) / RFU CDKN2B (11736163_a_at) / Fold change /veh CDKN2B (11736163_a_at) / RFU PRF1 (11729649_at) / Fold change /veh PRF1 (11729649_at) / RFU, ZNF638 /// ZNF638-IT1 / Fold change vs veh, ZNF638 /// ZNF638-IT1 / RFU, PANK3 / Fold change vs veh, PANK3 / RFU, SH3YL1 / Fold change vs veh, SH3YL1 / RFU, ZEB2 / Fold change vs veh, ZEB2 / RFU, NRIP1 / Fold change vs veh, NRIP1 / RFU, PTTG1IP / Fold change vs veh, PTTG1IP / RFU, CAPN2 / Fold change vs veh, CAPN2 / RFU, MED14 / Fold change vs veh, MED14 / RFU, SNORA58 / Fold change vs veh, SNORA58 / RFU, C1orf63 / Fold change vs veh, C1orf63 / RFU, LRRFIP1 / Fold change vs veh, LRRFIP1 / RFU, NDUFAF7 / Fold change vs veh, NDUFAF7 / RFU, SLC12A2 / Fold change vs veh, SLC12A2 / RFU, IBTK / Fold change vs veh, IBTK / RFU, ESF1 / Fold change vs veh, ESF1 / Fold change vs veh, TMEM50B / RFU, TAOK1 / Fold change vs veh, TAOK1 / RFU, ACBD3 / Fold change vs veh, ACBD3 / RFU, TMA16 / Fold change vs veh, TMA16 / RFU, RWDD3 / Fold change vs veh, RWDD3 / RFU, BCAT1 / Fold change vs veh, BCAT1 / RFU, EDEM3 / Fold change vs veh, EDEM3 / RFU, TMEM33 / Fold change vs veh, TMEM33 / RFU, WDR75 / Fold change vs veh, WDR75 / RFU, AHCTF1 / Fold change vs veh, AHCTF1 / RFU, TFRC / Fold change vs veh, TFRC / RFU, ZDHHC17 / Fold change vs veh, ZDHHC17 / RFU, NOM1 / Fold change vs veh, NOM1 / RFU, ARL8B / Fold change vs veh, ARL8B / RFU, ZBTB11 / Fold change vs veh, ZBTB11 / RFU, TAMM41 / Fold change vs veh, TAMM41 / RFU, KIAA1704 /// LOC100996395 / Fold change vs veh, KIAA1704 /// LOC100996395 / RFU, ING1 / Fold change vs veh, ING1 / RFU, TRMT61B / Fold change vs veh, TRMT61B / RFU, FUBP3 / Fold change vs veh, FUBP3 / RFU, TP53 / Fold change vs veh, TP53 / RFU, TNKS2 / Fold change vs veh, TNKS2 / RFU, ZFP14 / Fold change vs veh, ZFP14 / RFU, ACTR2 / Fold change vs veh, ACTR2 / RFU, PPP3R1 / Fold change vs veh, PPP3R1 / RFU, PIK3R1 / Fold change vs veh, PIK3R1 / RFU, HNRNPA1 / Fold change vs veh, HNRNPA1 / RFU, RNF170 / Fold change vs veh, RNF170 / RFU, ZNF28 / Fold change vs veh, ZNF28 / RFU, RNGTT / Fold change vs veh, RNGTT / RFU, OGT / Fold change vs veh, OGT / RFU, BRD1 / Fold change vs veh, BRD1 / RFU, MARS / Fold change vs veh, MARS / RFU, ZNF655 / Fold change vs veh, ZNF655 / RFU, FAHD1 / Fold change vs veh, FAHD1 / RFU, BDP1 / Fold change vs veh, BDP1 / RFU, LRRCC1 / Fold change vs veh, LRRCC1 / RFU, ARID1A / Fold change vs veh, ARID1A / RFU, ZNF146 / Fold change vs veh, ZNF146 / RFU, ZNF330 / Fold change vs veh, ZNF330 / RFU, GPN3 / Fold change vs veh, GPN3 / RFU, C9orf123 / Fold change vs veh, C9orf123 / RFU, N4BP2L2 / Fold change vs veh, N4BP2L2 / RFU, ARFIP1 / Fold change vs veh, ARFIP1 / RFU, FAM179B / Fold change vs veh, FAM179B / RFU, BCL10 / Fold change vs veh, BCL10 / RFU, UHRF1BP1L / Fold change vs veh, UHRF1BP1L / RFU, BET1 / Fold change vs veh, BET1 / RFU, CNOT2 / Fold change vs veh, CNOT2 / RFU, ZNF268 / Fold change vs veh, ZNF268 / Fold change vs veh, ZNF507 / RFU, DGCR2 / Fold change vs veh, DGCR2 / RFU, WDSUB1 / Fold change vs veh, WDSUB1 / Fold change vs veh, HSP90B1 /// MIR3652 / RFU, ADSS / Fold change vs veh, ADSS / RFU, GK / Fold change vs veh, GK / RFU, ZNF148 / Fold change vs veh, ZNF148 / RFU, TAF9 / Fold change vs veh, TAF9 / RFU, SLC1A5 / Fold change vs veh, SLC1A5 / RFU, SLMO2 / Fold change vs veh, SLMO2 / RFU, ABCC4 / Fold change vs veh, ABCC4 / RFU, LOC101060439 /// RAP1B / Fold change vs veh, LOC101060439 /// RAP1B / RFU, RFX7 / Fold change vs veh, RFX7 / RFU, GTPBP10 / Fold change vs veh, GTPBP10 / RFU, CNEP1R1 / Fold change vs veh, CNEP1R1 / RFU, BIVM-ERCC5 /// ERCC5 / Fold change vs veh, BIVM-ERCC5 /// ERCC5 / RFU, ILF3 / Fold change vs veh, ILF3 / RFU 11762660_at / Fold change /veh 11762660_at / RFU VCAN (11757783_s_at) / Fold change /veh VCAN (11757783_s_at) / RFU DDX43 (11728927_at) / Fold change /veh DDX43 (11728927_at) / RFU KRT8 (11758188_x_at) / Fold change /veh KRT8 (11758188_x_at) / RFU NKD1 (11759106_at) / Fold change /veh NKD1 (11759106_at) / RFU SRD5A1 (11742802_a_at) / Fold change /veh SRD5A1 (11742802_a_at) / RFU TPSAB1 /// TPSB2 (11721975_s_at) / Fold change /veh TPSAB1 /// TPSB2 (11721975_s_at) / RFU GSTM3 (11746129_a_at) / Fold change /veh GSTM3 (11746129_a_at) / RFU IL23R (11737362_x_at) / Fold change /veh IL23R (11737362_x_at) / RFU TMEM51 (11727254_a_at) / Fold change /veh TMEM51 (11727254_a_at) / RFU PIWIL2 (11732686_x_at) / Fold change /veh PIWIL2 (11732686_x_at) / RFU ORM1 (11744905_x_at) / Fold change /veh ORM1 (11744905_x_at) / RFU CCDC152 (11743942_at) / Fold change /veh CCDC152 (11743942_at) / RFU ECM1 (11717891_a_at) / Fold change /veh ECM1 (11717891_a_at) / RFU IL23R (11748794_a_at) / Fold change /veh IL23R (11748794_a_at) / RFU TNFAIP8L3 (11732012_x_at) / Fold change /veh TNFAIP8L3 (11732012_x_at) / RFU MBOAT4 (11741988_at) / Fold change /veh MBOAT4 (11741988_at) / RFU 11764193_at / Fold change /veh 11764193_at / RFU TMEM53 (11763286_at) / Fold change /veh TMEM53 (11763286_at) / RFU MAGEB2 (11727129_at) / Fold change /veh MAGEB2 (11727129_at) / RFU TMEM200A (11744735_a_at) / Fold change /veh TMEM200A (11744735_a_at) / RFU CCDC152 (11751479_a_at) / Fold change /veh CCDC152 (11751479_a_at) / RFU FAM211A (11726209_a_at) / Fold change /veh FAM211A (11726209_a_at) / RFU RGS16 (11746705_a_at) / Fold change /veh RGS16 (11746705_a_at) / RFU VCAN (11755009_s_at) / Fold change /veh VCAN (11755009_s_at) / RFU RHOB (11743442_s_at) / Fold change /veh RHOB (11743442_s_at) / RFU RGS16 (11720943_a_at) / Fold change /veh RGS16 (11720943_a_at) / RFU RGS16 (11720944_at) / Fold change /veh RGS16 (11720944_at) / RFU, VPS4B / Fold change vs veh, VPS4B / RFU, CREB1 / Fold change vs veh, CREB1 / RFU, DNAJC13 / Fold change vs veh, DNAJC13 / RFU, GNAQ / Fold change vs veh, GNAQ / RFU, CDK5R1 / Fold change vs veh, CDK5R1 / RFU, ZRANB3 / Fold change vs veh, ZRANB3 / RFU, CUL4A / Fold change vs veh, CUL4A / RFU, CCNY / Fold change vs veh, CCNY / RFU, UFL1 / Fold change vs veh, UFL1 / RFU, COG3 / Fold change vs veh, COG3 / RFU, DIAPH2 / Fold change vs veh, DIAPH2 / RFU, SKA2 / Fold change vs veh, SKA2 / RFU, AFF3 / Fold change vs veh, AFF3 / RFU, LMF1 / Fold change vs veh, LMF1 / RFU, IPO11 / Fold change vs veh, IPO11 / RFU, DFFB / Fold change vs veh, DFFB / RFU, FOXP1 / Fold change vs veh, FOXP1 / RFU, CARD8 / Fold change vs veh, CARD8 / RFU, STRN3 / Fold change vs veh, STRN3 / RFU, ADK / Fold change vs veh, ADK / RFU, RASSF2 / Fold change vs veh, RASSF2 / RFU, WIPF1 / Fold change vs veh, WIPF1 / RFU, LARP1B / Fold change vs veh, LARP1B / RFU, RASA1 / Fold change vs veh, RASA1 / RFU, RB1 / Fold change vs veh, RB1 / RFU, PPFIA1 / Fold change vs veh, PPFIA1 / RFU, MAT2A / Fold change vs veh, MAT2A / RFU, CCT5 / Fold change vs veh, CCT5 / RFU, WDR92 / Fold change vs veh, WDR92 / RFU, CUX1 / Fold change vs veh, CUX1 / RFU, TTC7A / Fold change vs veh, TTC7A / RFU, TMEM135 / Fold change vs veh, TMEM135 / RFU, DEPTOR / Fold change vs veh, DEPTOR / RFU, CPM / Fold change vs veh, CPM / RFU, DNAJB6 / Fold change vs veh, DNAJB6 / RFU, CACNA2D3 / Fold change vs veh, CACNA2D3 / RFU, DTX4 / Fold change vs veh, DTX4 / RFU, TFCP2 / Fold change vs veh, TFCP2 / RFU, GMCL1 /// GMCL1P1 / Fold change vs veh, GMCL1 /// GMCL1P1 / RFU, AEBP2 / Fold change vs veh, AEBP2 / RFU, SNHG1 /// SNORD22 /// SNORD25 /// SNORD26 /// SNORD27 /// SNORD28 /// SNORD29 /// SNORD31 / Fold change vs veh, SNHG1 /// SNORD22 /// SNORD25 /// SNORD26 /// SNORD27 /// SNORD28 /// SNORD29 /// SNORD31 / Fold change (Aza/veh), C12orf56 (ProbeSet 11735607_a_at) / Fold change (ACY-1035/veh), C12orf56 (ProbeSet 11735607_a_at) / Fold change (Aza/veh), FGFR1OP (ProbeSet 11751329_s_at) / Fold change (ACY-1035/veh), FGFR1OP (ProbeSet 11751329_s_at) / Fold change (Aza/veh), VPS36 (ProbeSet 11739960_a_at) / Fold change (ACY-1035/veh), VPS36 (ProbeSet 11739960_a_at) / RFU SYPL1 (11715823_x_at) / Fold change /veh SYPL1 (11715823_x_at) / RFU IGFBP7 (11715501_s_at) / Fold change /veh IGFBP7 (11715501_s_at) / RFU REEP3 (11722064_at) / Fold change /veh REEP3 (11722064_at) / RFU IGLL1 (11728026_x_at) / Fold change /veh IGLL1 (11728026_x_at): dose or concentration left out as unconfirmed
Details: MV-4-11 cells, 48 hours

With `Nc1ccc(-c2cccs2)cc1NC(=O)c1ccc2c(c1)cc(C1CC1)n2CCN1CCOCC1` [ACY-1035] the “Fold change /veh FAM174B (11720279_a_at)” value was 1.09.
